Test results as given in ChEMBL document CHEMBL5620351, “Advancing beyond reverse transcriptase inhibitors: The new era of hepatitis B polymerase inhibitors” (Eur J Med Chem, 2023).
Blank lines part the entries; values can stand above or below the compound they belong to.

Experiments:
Hepatitis B virus [1] = experiment: Antiviral activity against HBV infected in human HePAD38 cells assessed as reduction in of intracellular HBV DNA incubated for 5 days by Southern blotting analysis; type: functional, organism-based; settings: HePAD38, 120 h
Huh-7 [2] = experiment: Cytotoxicity against human Huh-7 cells assessed as reduction in cell viability by Neutral Red staining based assay; type: functional
Huh-7 [3] = experiment: Cytotoxicity against human Huh-7 cells assessed as reduction in cell viability by LDH release assay; type: functional
Hepatitis B virus [4] = experiment: Antiviral activity against lamivudine resistant HBV infected in human HepG2 cells assessed as reduction in of intracellular HBV DNA incubated for 5 days by Southern blotting analysis; type: functional, organism-based; settings: HepG2, 120 h
Hepatitis B virus [5] = experiment: Antiviral activity against adefovir-resistant HBV infected in human HepG2 cells assessed as reduction in of intracellular HBV DNA incubated for 5 days by Southern blotting analysis; type: functional, organism-based; settings: HepG2, 120 h
Hepatitis B virus [6] = experiment: Antiviral activity against HBV infected in human HepG2.2.15.7 cells assessed as reduction in HBV DNA replication by TR-PCR analysis; type: functional, organism-based
Hepatitis B virus [7] = experiment: Antiviral activity against lamivudine-resistant HBV infected in human HepG2 cells assessed as reduction in HBV DNA replication by RT-PCR analysis; type: functional, organism-based
Hepatitis B virus [8] = experiment: Antiviral activity against wild type HBV infected in human HepG2 cells assessed as reduction in HBV DNA replication by RT-PCR analysis; type: functional, organism-based
Hepatitis B virus [9] = experiment: Antiviral activity against HBV infected in human HepDES19 cells assessed as inhibition of HBV replication by qPCR analysis; type: functional, organism-based
Hepatitis B virus [10] = experiment: Antiviral activity against HBV infected in human HepDES19 cells assessed as reduction in HBV replication; type: functional, organism-based
Hepatitis B virus [11] = experiment: Antiviral activity against HBV infected in human HepG2 2.2.15 cells assessed as reduction in extracellular DNA level; type: functional, organism-based
HepG2 2.2.15 = experiment: Cytotoxicity against human HepG2 2.2.15 cells assessed as cell viability incubated for 12 days by WST-1 assay; type: functional; settings: HepG2 2.2.15, 288 h, time 12 day
Hepatitis B virus [12] = experiment: Antiviral activity against HBV infected in human HepG2 2.2.15 cells assessed as reduction in intracellular DNA level; type: functional, organism-based
HepG2 [13] = experiment: Cytotoxicity against human HepG2 cells assessed as reduction in cell viability in presence of lamivudine by MTS assay; type: functional
HepG2 [14] = experiment: Cytotoxicity against human HepG2 cells assessed as reduction in cell viability by MTS assay; type: functional
[15] = Cytotoxicity against human HepDES19 cells assessed as reduction in cell viability incubated for 1 hr by MTS assay; type: functional
[16] = Cytotoxicity against human HEK293 cells assessed as reduction in cell viability incubated for 1 hr by MTS assay; type: toxicity, cell-based
[17] = Cytotoxicity against human LX2 cells assessed as reduction in cell viability incubated for 1 hr by MTS assay; type: toxicity, cell-based; settings: LX-2 cells
Hepatitis B virus [18] = experiment: Antiviral activity against HBV infected in human HepDES19 cells assessed as inhibition of extracellular HBV DNA by qPCR analysis; type: functional, organism-based
[19] = Cytotoxicity against human HepG2-hNTCP cells assessed as reduction in cell viability incubated for 3 days by celltiter glo assay; type: functional; settings: 72 h, time 3 day
Hepatitis B virus [20] = experiment: Antiviral activity against HBV infected in human HepG2-hNTCP cells assessed as reduction in HBV DNA replication by qRT-PCR analysis; type: functional, organism-based
[21] = Cytotoxicity against human HB611 cells assessed as reduction in cell viability incubated for 3 days by celltiter glo assay; type: functional; settings: HB611, 72 h, time 3 day
Hepatitis B virus [22] = experiment: Antiviral activity against HBV infected in human HepG2 2.2.15 cells assessed as reduction on HBsAg level incubated for 5 days; type: functional; design: concentration or dose not given beside the values; settings: time 5 day
HepG2 [23] = experiment: Cytotoxicity against human HepG2 cells assessed as cell viability incubated for 12 days by WST-1 assay; type: functional; settings: HepG2, 288 h, time 12 day
[24] = Cytotoxicity against human HB611 cells assessed as reduction in cell viability incubated for 6 to 9 days by celltiter-glo assay; type: functional; settings: time 6-9 day
[25] = Inhibition of HBV RNA polymerase; design: species or system Hepatitis B virus
Hepatitis B virus [26] = experiment: Antiviral activity against HBV transfected in human HB611 cells assessed as reduction of HBV DNA replication incubated for 5 days by q-PCR analysis; type: functional, organism-based; settings: HB611, 120 h
Hepatitis B virus [27] = experiment: Antiviral activity against HBV transfected in human HB611 cells; type: functional, organism-based
[28] = Cytotoxicity against human HepAD38 cells assessed as reduction in cell viability incubated for 4 days by XTT assay; type: functional; settings: HePAD38, 96 h, time 4 day
Hepatitis B virus [29] = experiment: Antiviral activity against HBV infected in human HePAD38 cells assessed as reduction in HBV replication by qPCR analysis; type: functional, organism-based
Hepatitis B virus [30] = experiment: Antiviral activity against HBV infected in human Hep38.7-TeT cells assessed as inhibition of extracellular HBV DNA by real-time qPCR analysis; type: functional, organism-based
[31] = Cytotoxicity against human primary hepatocytes assessed as cell viability incubated for 72 hrs by MTS assay; type: toxicity, cell-based, Hepatocyte
Hepatitis B virus [32] = experiment: Antiviral activity against HBV infected in human HepG2-NTCP12 cells assessed as inhibition of extracellular HBV DNA incubated for 2 weeks by SYBR green dye based quantitative PCR analysis; type: functional, organism-based; settings: HepG2-NTCP12, 336 h
[33] = Cytotoxicity against human primary hepatocytes assessed as cell viability incubated for 72 hrs by LDH release assay; type: toxicity, cell-based, Hepatocyte

EC50 (Hepatitis B virus [9]): 690 nM
Structure (SMILES): Cc1ccc(CNC(=O)C2C(=O)N(O)C(=O)c3cc(NC(=O)c4ccccc4)ccc32)cc1 (stereo not given)

EC50 (Hepatitis B virus [9]): 690 nM
Structure (SMILES): O=C1Cc2ccccc2C(=O)N1O
CC50 (HepG2 [13]): > 100000 nM
CC50 (HepG2 [14]): > 100000 nM

EC50 (Hepatitis B virus [9]): 690 nM
Structure (SMILES): COC(=O)C1C(=O)N(O)C(=O)c2ccccc21 (stereo not given)

EC50 (Hepatitis B virus [9]): 690 nM
Structure (SMILES): O=C(Nc1ccc(F)cc1)C1C(=O)N(O)C(=O)c2ccccc21 (stereo not given)

EC50 (Hepatitis B virus [9]): 690 nM
Structure (SMILES): COc1ccc(CNC(=O)C2C(=O)N(O)C(=O)c3ccccc32)cc1 (stereo not given)

IC50 (Hepatitis B virus [29]): 5500 nM
Structure (SMILES): O=c1cc(Nc2cccc(-c3ccc(F)cc3)c2)[nH]c(=O)n1O
CC50 [28]: > 100000 nM

EC50 (Hepatitis B virus [10]): 2400 nM
Structure (SMILES): CCNC(=O)C1C(=O)N(O)C(=O)c2ccc(OC)nc21 (stereo not given)

EC50 (Hepatitis B virus [10]): 2400 nM
Structure (SMILES): O=C(NCc1ccc(F)cc1)C1C(=O)N(O)C(=O)c2ccc(O)nc21 (stereo not given)

EC50 (Hepatitis B virus [9]): 690 nM
Structure (SMILES): O=C(Nc1ccccc1)C1C(=O)N(O)C(=O)c2ccccc21 (stereo not given)

EC50 (Hepatitis B virus [9]): 690 nM
Structure (SMILES): O=C(NCc1ccccc1)C1C(=O)N(O)C(=O)c2ccccc21 (stereo not given)

Second part, the compound before the results:

Structure (SMILES): Nc1nc(O)c2ncn([C@H]3CC[C@@H](CO)O3)c2n1
EC50 (Hepatitis B virus [1]): 300 nM
CC50 (Huh-7 [2]): 26000 nM
CC50 (Huh-7 [3]): 97000 nM
EC50 (Hepatitis B virus [4]): 890 nM
EC50 (Hepatitis B virus [5]): 660 nM

Structure (SMILES): Clc1ccc(/C=C/c2cc(Cl)cc(Cl)c2)cc1
EC50 (Hepatitis B virus [6]): 14400 nM
EC50 (Hepatitis B virus [7]): 16400 nM
EC50 (Hepatitis B virus [8]): 13300 nM

Structure (SMILES): CC(=NOc1ccc(F)cc1)c1c(C)cc(=O)n(O)c1O
EC50 (Hepatitis B virus [10]): 110 nM

Structure (SMILES): C=CCNc1nc(N)c(/C(N)=N\C#N)s1
EC50 (Hepatitis B virus [11]): 480 nM
CC50 (HepG2 2.2.15): 7200 nM
EC50 (Hepatitis B virus [12]): 740 nM

Structure (SMILES): C/C(=N\c1ccccc1N)c1c(C)cc(=O)n(O)c1O
EC50 (Hepatitis B virus [9]): 690 nM
EC50 (Hepatitis B virus [10]): 110 nM

Structure (SMILES): COC(=O)c1c(CCl)cc(O)c(=O)c(O)c1C(=O)OC
CC50 [15]: > 80000 nM
CC50 at 1 h [16]: > 100000 nM
CC50 at 1 h [17]: > 100000 nM
EC50 (Hepatitis B virus [18]): 400 nM

Structure (SMILES): N=C(N)SCCc1ccc(OCc2ccc([N+](=O)[O-])cc2)cc1
CC50 [19]: 37400 nM
IC50 (Hepatitis B virus [20]): 7310 nM
CC50 [21]: 41900 nM

Structure (SMILES): N#C/C=C1/C=C[C@@H](O)C[C@H]1O[C@@H]1O[C@H](CO)[C@@H](O)[C@H](O)[C@H]1O
Activity (Hepatitis B virus [22]): 62%

Structure (SMILES): CC(=NOCc1ccccc1F)c1c(C)cc(=O)n(O)c1O
EC50 (Hepatitis B virus [10]): 110 nM

Structure (SMILES): O=C(/C=C/c1ccc(O)c(O)c1)NCCc1ccc(O)c(O)c1
CC50 (HepG2 [23]): 229000 nM

Structure (SMILES): CCCCCCCC/C=C\CCCCCCCC(=O)NCCc1ccc(O)c(O)c1 [OLEOYL DOPAMINE]
CC50 [24]: 900 nM
IC50 [25]: 410 nM
IC50 (Hepatitis B virus [26]): 100 nM
EC50 (Hepatitis B virus [27]): 130 nM

Structure (SMILES): NC(=O)C(Cc1ccc(O)c(O)c1)OC(=O)/C=C/c1ccc(O)c(O)c1 (stereo not given)
CC50 (HepG2 [23]): 229000 nM

Structure (SMILES): CC(=NOc1ccccc1)c1c(C)cc(=O)n(O)c1O
EC50 (Hepatitis B virus [10]): 110 nM

Structure (SMILES): O=C(/C=C/c1ccc(O)c(O)c1)O[C@H](Cc1ccc(O)c(O)c1)C(=O)O [ROSMARINIC ACID]
EC50 (Hepatitis B virus [30]): 30000 nM

Structure (SMILES): O=C(CCc1ccc(O)c(O)c1)OCCc1ccc(O)c(O)c1
CC50 (HepG2 [23]): 229000 nM

Structure (SMILES): C/C(=N\OCc1ccc(F)cc1)c1c(C)cc(=O)n(O)c1O
CC50 at 72 h [31]: > 100000 nM
EC50 (Hepatitis B virus [32]): 49 nM
CC50 at 72 h [33]: > 100000 nM

Structure (SMILES): CC(C)c1ccc(O)c(=O)c(O)c1 [BETA-THUJAPLICINOL]
CC50 (HepG2 [13]): 48000 nM
CC50 (HepG2 [14]): 47000 nM
